In patent publication US20090087845A1, “Genetic Markers Of True Low Birth Weight” (priority 2005, published 2009):

System: placental gene expression
[1] = rat placenta, 0, 5%, 10% in drinking water
[2] = rat placenta, 5% in drinking water throughout pregnancy
[3] = rat placenta, 5% or 10% in drinking water throughout pregnancy, p<0.05 in both t-tests
[4] = rat placenta, 10% in drinking water throughout pregnancy

SMILES: CCO [alcohol]
- Mean 10%, Pex6 (1368264_at) (10% alcohol group, Mean Contr 6.259265): 5.303
- Mean 10%, St3gal3 (1373607_at) (10% alcohol group, Mean Contr 6.298338): 5.59
- Mean 10%, Kbtbd4_predicted (1374614_at) (10% alcohol group, Mean Contr 6.314496): 5.325
- Mean 10%, Phyh (1393245_at) (10% alcohol group, Mean Contr 6.483711): 5.227
- Mean 10%, LOC287533 (1373627_at) (10% alcohol group, Mean Contr 6.526312): 5.351
- Mean 10%, Transcribed locus (1388465_at) (10% alcohol group, Mean Contr 6.549543): 5.667
- Mean 10%, Mss4 (1376745_at) (10% alcohol group, Mean Contr 6.629539): 5.49
- Mean 10%, Plag1 (1391714_at) (10% alcohol group, Mean Contr 6.670053): 5.554
- Mean 10%, Sumf1_predicted (1389833_at) (10% alcohol group, Mean Contr 6.839621): 5.774
- Mean 10%, Polr3e_predicted (1374415_at) (10% alcohol group, Mean Contr 6.849002): 5.78
- Mean 10%, RGD1308959 (1399108_at) (10% alcohol group, Mean Contr 6.859582): 5.829
- Mean 10%, Wig1 (1387021_at) (10% alcohol group, Mean Contr 6.895168): 5.95
- Mean 10%, probe set 1379314_at (10% alcohol group, Mean Contr 6.970231): 5.514
- Mean 10%, Ddx59 (1383635_at) (10% alcohol group, Mean Contr 6.981191): 6.018
- Mean 10%, Rnd3 (1394077_at) (10% alcohol group, Mean Contr 7.018906): 6.069
- Mean 10%, probe set 1393037_at (10% alcohol group, Mean Contr 7.020197): 6.384
- Mean 10%, Slc39a4_predicted (1374366_at) (10% alcohol group, Mean Contr 7.252498): 5.652
- Mean 10%, RGD1305243_predicted (1374076_at) (10% alcohol group, Mean Contr 7.300542): 6.175
- Mean 10%, Transcribed locus (1393310_at) (10% alcohol group, Mean Contr 7.364799): 5.834
- Mean 10%, Gusb (1367901_at) (10% alcohol group, Mean Contr 7.420203): 6.432
- Mean 10%, probe set 1392953_at (10% alcohol group, Mean Contr 7.435411): 6.103
- Mean 10%, Crsp9_predicted (1377263_at) (10% alcohol group, Mean Contr 7.471023): 5.974
- Mean 10%, probe set 1389582_at (10% alcohol group, Mean Contr 7.588214): 6.297
- Mean 10%, Transcribed locus (1393226_at) (10% alcohol group, Mean Contr 7.705027): 6.077
- Mean 10%, RGD1565289_predicted (1375297_at) (10% alcohol group, Mean Contr 7.731478): 6.615
- Mean 10%, Zfp207 (1394591_at) (10% alcohol group, Mean Contr 8.125942): 6.769
- Mean 10%, Akr7a2 (1367843_at) (10% alcohol group, Mean Contr 8.276972): 6.866
- Mean 10%, Tparl (1373392_at) (10% alcohol group, Mean Contr 8.308305): 7.589
- Mean 10%, Mcts1 (1388660_at) (10% alcohol group, Mean Contr 8.623529): 7.771
- Mean 10%, Hadhsc (1370237_at) (10% alcohol group, Mean Contr 8.793343): 8.015
- Mean 10%, Asah1 (1374770_at) (10% alcohol group, Mean Contr 9.074708): 7.952
- Mean 10%, Arts1 (1368356_a_at) (10% alcohol group, Mean Contr 9.55972): 8.725
- Mean 10%, Ndufb5_predicted (1388304_at) (10% alcohol group, Mean Contr 10.12286): 9.267
- Mean 10%, MGC72992 (1389325_at) (10% alcohol group, Mean Contr 10.24563): 9.571
- Mean 10%, Vps35_mapped (1372806_at) (10% alcohol group, Mean Contr 10.46183): 9.969
- sig down and spec alc, Arts1 (1368356_a_at) (contr vs 5% vs 10% alcohol): YES
- sig down and spec alc, Cdca7 (1374540_at) (contr vs 5% vs 10% alcohol): YES
- sig down and spec alc, Centa2 (1369725_at) (contr vs 5% vs 10% alcohol): YES
- sig down and spec alc, Crsp9_predicted (1377263_at) (contr vs 5% vs 10% alcohol): YES
- sig down and spec alc, Cul2_predicted (1378127_at) (contr vs 5% vs 10% alcohol): YES
- sig down and spec alc, Ddx59 (1383635_at) (contr vs 5% vs 10% alcohol): YES
- sig down and spec alc, Ggps1 (1377866_a_at) (contr vs 5% vs 10% alcohol): YES
- sig down and spec alc, Gusb (1367901_at) (contr vs 5% vs 10% alcohol): YES
- sig down and spec alc, Hadhsc (1370237_at) (contr vs 5% vs 10% alcohol): YES
- sig down and spec alc, Mcpt6 (1387334_at) (contr vs 5% vs 10% alcohol): YES
- sig down and spec alc, Ndufb5_predicted (1388304_at) (contr vs 5% vs 10% alcohol): YES
- sig down and spec alc, Pex6 (1368264_at) (contr vs 5% vs 10% alcohol): YES
- sig down and spec alc, Prdm2_mapped (1381229_at) (contr vs 5% vs 10% alcohol): YES
- sig down and spec alc, RGD1305243_predicted (1374076_at) (contr vs 5% vs 10% alcohol): YES
- sig down and spec alc, RGD1565289_predicted (1375297_at) (contr vs 5% vs 10% alcohol): YES
- sig down and spec alc, Tparl (1373392_at) (contr vs 5% vs 10% alcohol): YES
- sig down and spec alc, Transcribed locus (1377021_at) (contr vs 5% vs 10% alcohol): YES
- sig down and spec alc, Trp53rk_predicted (1379488_at) (contr vs 5% vs 10% alcohol): YES
- sig down and spec alc, Vps35_mapped (1372806_at) (contr vs 5% vs 10% alcohol): YES
- number of placental genes down-regulated after excluding genes overlapping with caloric restriction, high fat diet and SSRI (rat placenta): 35 genes
- number of placental genes up-regulated after excluding genes overlapping with caloric restriction, high fat diet and SSRI (rat placenta): 7 genes
- placental expression of TP53 regulating kinase (Trp53rk) [1]: down-regulated
- placental expression of Zinc finger protein 365 (Zfp365) [1]: up-regulated
- placental expression of cell division cycle associated 7 (Cdca7) [1]: down-regulated
- placental expression of inositol polyphosphate-1-phosphatase (Inpp1) [1]: down-regulated
- placental expression of peroxisomal biogenesis factor 6 (Pex6) [1]: down-regulated
- placental expression of pleckstrin (Plek) [1]: down-regulated
- Mean 5% expression, probe set 1370527_a_at (casein kinase 1, delta, Csnk1d) [2]: 9.839
- Mean 5% expression, probe set 1380351_at [2]: 4.282
- Mean 5% expression, probe set 1381613_at (Transcribed locus) [2]: 4.29
- Mean 5% expression, probe set 1384272_at (Zinc finger protein 365, Zfp365) [2]: 4.227
- Mean 5% expression, probe set 1384691_at (Transcribed locus, weakly similar to XP_577161.1) [2]: 4.65
- Mean 5% expression, probe set 1384793_at [2]: 4.485
- Mean 5% expression, probe set 1388932_at (laminin, alpha 5, Lama5) [2]: 9.683
- Mean 5% expression, probe set 1391879_at (Transcribed locus) [2]: 4.547
- number of probe sets up-regulated (0<5%<10% pattern) [3]: 8 probe sets
- number of probe sets with reduced expression in exposed animals (0>5%>10% pattern) [3]: 57 probe sets
- Mean 10% expression, probe set 1370527_a_at (casein kinase 1, delta, Csnk1d) [4]: 10.03
- Mean 10% expression, probe set 1380351_at [4]: 4.908
- Mean 10% expression, probe set 1381613_at (Transcribed locus) [4]: 4.634
- Mean 10% expression, probe set 1384272_at (Zinc finger protein 365, Zfp365) [4]: 4.517
- Mean 10% expression, probe set 1384691_at (Transcribed locus, weakly similar to XP_577161.1) [4]: 5.112
- Mean 10% expression, probe set 1384793_at [4]: 4.761
- Mean 10% expression, probe set 1388932_at (laminin, alpha 5, Lama5) [4]: 9.897
- Mean 10% expression, probe set 1391879_at (Transcribed locus) [4]: 4.937
